Source: ChEMBL document CHEMBL1201862, “PubChem BioAssay data set” (2004)
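Method: 48-hour compound exposure of cells in 96-well plates, five concentrations, linear interpolation of endpoints. At the GI50, growth is halved.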 Calls of active or inactive are those of the source. Rule as the data show it: active = GI50 up to about 1.1 µM and inactive = higher.

Legend:
Assay in all cases: NCI anticancer screen, dose series, 48 h
[1] = tested on: ACHN
[2] = tested on: HCC 2998
[3] = tested on: SNB-19
[4] = tested on: COLO 205
[5] = tested on: Hs-578T
[6] = tested on: MCF7
[7] = tested on: DU-145
[8] = tested on: HL-60
[9] = tested on: PC-3
[10] = tested on: SNB-75
[11] = tested on: 786-0
[12] = tested on: NCI-H23
[13] = tested on: M14
[14] = tested on: SN12C
[15] = tested on: UO-31
[16] = tested on: MOLT-4
[17] = tested on: EKVX
[18] = tested on: RXF 393
[19] = tested on: HT-29
[20] = tested on: Malme-3M
[21] = tested on: OVCAR-5
[22] = tested on: A498
[23] = tested on: NCI-H226
[24] = tested on: OVCAR-3
[25] = tested on: CAKI-1
[26] = tested on: T47D
[27] = tested on: SK-MEL-5
[28] = tested on: HCT-15
[29] = tested on: MDA-MB-231
[30] = tested on: HOP-62
[31] = tested on: SK-OV-3
[32] = tested on: NCI-H460
[33] = tested on: HCT-116
[34] = tested on: SF-295
[35] = tested on: NCI/ADR-RES
[36] = tested on: SF-539
[37] = tested on: UACC-62
[38] = tested on: SK-MEL-2
[39] = tested on: NCI-H522
[40] = tested on: TK-10
[41] = tested on: KM12
[42] = tested on: HOP-92
[43] = tested on: LOX IMVI
[44] = tested on: CCRF-CEM
[45] = tested on: K562
[46] = tested on: SR
[47] = tested on: UACC-257
[48] = tested on: SK-MEL-28
[49] = tested on: MDA-MB-435
[50] = tested on: MDA-N
[51] = tested on: SF-268
[52] = tested on: A549
[53] = tested on: SW-620
[54] = tested on: RPMI-8226
[55] = tested on: U-251

`C#CC1=CC(=O)C(OC)=CC1=O` was tested, and the GI50 [1] was 3.44 µM (inactive), the GI50 [2] was 30.1 µM (inactive) and the GI50 [3] was > 100 µM (inactive). For the same compound, the GI50 [4] was 27 µM (inactive), the GI50 [5] was 95.1 µM (inactive) and the GI50 [6] was 14.8 µM (inactive). The GI50 [7] was 17.8 µM (inactive), the GI50 [8] was 2.44 µM (inactive) and the GI50 [9] was 53.2 µM (inactive). For the same compound, the GI50 [10] was < 0.01 µM (active), the GI50 [11] was 3.01 µM (inactive) and the GI50 [12] was 20.9 µM (inactive). For the same compound, the GI50 [13] was 16.5 µM (inactive), the GI50 [14] was 17.6 µM (inactive) and the GI50 [15] was 4.68 µM (inactive). For the same compound, the GI50 [16] was 3.25 µM (inactive), the GI50 [17] was 23.3 µM (inactive) and the GI50 [18] was 15.2 µM (inactive). The GI50 [19] was 23.3 µM (inactive), the GI50 [20] was 25.9 µM (inactive) and the GI50 [21] was 33.5 µM (inactive). For the same compound, the GI50 [22] was > 100 µM (inactive), the GI50 [23] was 19.3 µM (inactive) and the GI50 [24] was 33.5 µM (inactive). For the same compound, the GI50 [25] was 18.6 µM (inactive), the GI50 [26] was 23 µM (inactive) and the GI50 [27] was 16.2 µM (inactive). The GI50 [28] was 16.4 µM, the GI50 [29] was 16.4 µM (inactive) and the GI50 [30] was 16.5 µM (inactive). For the same compound, the GI50 [31] was > 100 µM (inactive), the GI50 [32] was 34.5 µM (inactive) and the GI50 [33] was 13.3 µM (inactive). The GI50 [34] was 29.4 µM (inactive), the GI50 [35] was 32.9 µM (inactive) and the GI50 [36] was 42.7 µM (inactive). The GI50 [37] was 15.7 µM (inactive), the GI50 [38] was 15.7 µM (inactive) and the GI50 [39] was 1.77 µM (inactive). The GI50 [40] was 48.6 µM (inactive), the GI50 [41] was 58.7 µM (inactive) and the GI50 [42] was 15.6 µM (inactive). For the same compound, the GI50 [43] was 17.6 µM (inactive), the GI50 [44] was 7.36 µM (inactive) and the GI50 [45] was 5.06 µM (inactive). The GI50 [46] was 6.7 µM (inactive), the GI50 [47] was 41.6 µM (inactive) and the GI50 [48] was 37.2 µM (inactive). The GI50 [49] was 18.1 µM (inactive), the GI50 [50] was 19.1 µM (inactive) and the GI50 [51] was 43.4 µM (inactive). For the same compound, the GI50 [52] was 33.9 µM (inactive), the GI50 [53] was 17.5 µM (inactive) and the GI50 [54] was 17.8 µM (inactive). For the same compound, the GI50 [55] was 31.9 µM (inactive).
